Source: patent US20060134725A1, “Method for the determination of the presence of an antibiotic in a fluid” (priority 2003, published 2006)

How the values were obtained:
Assay type in all cases: cell-based
[1] = test system: Bacillus stearothermophilus var. calidolactis; test: Delvotest microbiological test, 0.27 ml test medium, nutrients added as tablet, different volumes of milk; conditions: for concentration giving a Z-value of 0 (threshold): 2.6 hours at 64° C., Z=0.35.a+0.65.b, FIG. 1
Excerpt: (§1) The arrangement can be used for detecting residues of antibiotics in milk. The commercially available Delvotest® and BR®-test are commonly used. Delvotest® comprises an agar matrix, CFU's of an acid forming microorganism, as well as a color indicator. With the arrangement mentioned above it is possible to automatically scan the bottom side of each of the samples in a test plate. The color and the brightness of the reflected light are registered in three variables, each describing one color component, for instance the so-called L*a*b* model. In the L*a*b* model, the color spectrum is divided in a two-dimensional matrix. The position of a color in this matrix is registered by means of the two variables “a” and “b”. The variable L indicates the intensity (for instance, from light blue to dark-blue). It is possible to make a criterion comprising the a-value, b-value and L-value to make a composite function as follows: Z=wL.L+wa.a+wb.b
(§2) where wL, wa and wb are weighting factors for the L-value, a-value and b-value, respectively. […] By combining two or more of the color components in the L*a*b* model in a predetermined manner that depends on the type of residue and the sample, an accurate detection is possible. In practice, a certain value of Z at which a test should switch between positive and negative result (the threshold value) can be experimentally predetermined.
(§3) As outlined in the detailed description, the following equation was used: Z=0.35.a+0.65.b. The explanation of the symbols used in the Figure is as follows.
(§4) A commercially available microbiological test system (Delvotest®) having 0.27 ml of test medium containing agar, CFU's of Bacillus stearothermophilus var. calidolactis, an antifolate, and the indicator Bromocresol Purple was investigated using milk with added penicillin G in concentrations of 0, 2, 3, 4 and 6 ppb. These five milk samples were applied to the test systems in a series of four different volumes, ie. 0.05 ml, 0.10 ml (the Delvotest® recommended volume), 0.20 ml and 0.30 ml. Before addition of the milk, a tablet with nutrients was applied on the test medium. After the milk was added, the tests were incubated for 2.6 hours at 64° C. If there are no or little antibiotics that inhibit the growth of the test organism, after some time, an acid environment is formed by the growing microorganisms and the indicator changes color from blue/purple to yellow. However, if there are sufficient antibiotics to inhibit growth, the color of the indicator remains purple.
Firstly, the colors were measured using the scanning apparatus described in the detailed description using the following formula for the Z-value: Z=0.35.a+0.65.b. […]

[2] = test system: Bacillus stearothermophilus var. calidolactis; test: Delvotest microbiological test, 0.15 ml test medium with nutrients present in the test medium, different volumes of milk, visual colour score; conditions: 3 hours at 64° C., FIG. 3
Protocol: In this test, the nutrients were present in the test medium. The explanation of the symbols used in the Figure is as follows.
A commercially available microbiolgical test system (Delvotest®) having 0.15 ml of test medium containing agar, CFU's of Bacillus stearothermophilus var. calidolactis, an antifolate, nutrients, and the indicator Bromocresol Purple was investigated using milk with added penicillin G in concentrations of 0, 0.5, 1, 2, 3 and 4 ppb. These six different milk samples were applied to the test systems in a series of five different volumes, i.e. 0.05 ml, 0.10 ml (the Delvotest® recommended volume), 0.15 ml, 0.20 ml and 0.30 ml. After the milk was added, the tests were incubated for 3 hours at a temperature of 64° C. If there are no antibiotics (or only little) that inhibit the growth of the test organism, after a certain amount of time, an acid environment is formed by the growing microorganisms. Then, the color of the indicator changes from blue/purple to yellow.
Intermediate color changes were assigned values of −2, −1, 0, +1 or +2, depending on the degree of coloration. […] If, for example, a visual color of 2 is chosen as the required threshold value, it can be seen from FIG. 3 that, whereas the standard recommended amount of 0.10 ml milk gives a color of 2 at a concentration of 2 ppb penicillin G, whereas for 0.15, 0.20 and 0.30 ml milk this threshold already is reached at 1.7 ppb penicillin G.

[3] = test system: Bacillus stearothermophilus var. calidolactis; test: Delvotest microbiological test, 0.27 ml test medium, nutrients as tablet, different milk volumes at different incubation times; conditions: 4 ppb penicillin G
Excerpt: as §1, §2, §3, §4
A similar experimental setup as in Example 1 was used. […] (for 2.4 h, normally referred to as the point of indicator change, and 3.0 h, normally referred to as the point of reading). […]

Compound: CC1(C)S[C@@H]2[C@H](NC(=O)Cc3ccccc3)C(=O)N2[C@H]1C(=O)O [penicillin G]
- concentration giving a Z-value of 0 (threshold) ([1]; 0.10 ml milk on 0.27 ml test medium): 3 ppb
- concentration giving a Z-value of 0 (threshold) ([1]; 0.20 ml milk on 0.27 ml test medium): 2.3 ppb
- concentration giving a Z-value of 0 (threshold) ([1]; 0.30 ml milk on 0.27 ml test medium): 2.0 ppb
- change of sensitivity of the test towards the antibiotic ([1]; milk, doubling the amount of fluid sample advocated by the producer of the test): increases by a third
- concentration giving a visual color of 2 (threshold) ([2]; 0.10 ml milk on 0.15 ml test medium): 2 ppb
- concentration giving a visual color of 2 (threshold) ([2]; 0.15 ml milk on 0.15 ml test medium): 1.7 ppb
- concentration giving a visual color of 2 (threshold) ([2]; 0.20 ml milk on 0.15 ml test medium): 1.7 ppb
- concentration giving a visual color of 2 (threshold) ([2]; 0.30 ml milk on 0.15 ml test medium): 1.7 ppb
- Z-value ([3]; 0.10 ml milk, 2.4 h at 64° C., line ◯ of FIG. 2): 11
- Z-value ([3]; 0.10 ml milk, 3.0 h at 64° C., line ⋄ of FIG. 2): 4
- Z-value ([3]; 0.30 ml milk, 2.4 h at 64° C., line Δ of FIG. 2): 14
- Z-value ([3]; 0.30 ml milk, 3.0 h at 64° C., line □ of FIG. 2): 13
